{
  "source": "patent EP4327830A1",
  "about": "(priority 2022, dated 2024)",
  "key": {"HEK293 OATP1B3+": {"tested_on": "HEK293 OATP1B3+", "conditions": "for IC50: read-out: IC50_cytotox on OATP1B3 expressing cell line + SE"}, "[1]": {"molecular_target": "protein phosphatase-1 catalytic subunit (a-Isoform from rabbit, Sigma-Aldrich) (Oryctolagus cuniculus, UniProt P62139)", "sequence (P62139 whole entry, looked up, canonical isoform)": "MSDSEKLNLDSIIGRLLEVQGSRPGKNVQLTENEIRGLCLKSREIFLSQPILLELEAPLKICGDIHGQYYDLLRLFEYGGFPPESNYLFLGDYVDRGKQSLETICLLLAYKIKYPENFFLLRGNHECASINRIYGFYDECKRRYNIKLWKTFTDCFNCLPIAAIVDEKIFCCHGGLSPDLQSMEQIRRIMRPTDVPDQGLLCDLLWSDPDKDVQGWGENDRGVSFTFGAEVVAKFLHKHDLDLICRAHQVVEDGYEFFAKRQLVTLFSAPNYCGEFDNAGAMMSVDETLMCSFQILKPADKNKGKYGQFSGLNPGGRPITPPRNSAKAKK", "format": "biochemical", "conditions": "read-out: IC50_PPI + SE"}, "HEK293 OATP1B1+": {"tested_on": "HEK293 OATP1B1+", "conditions": "for IC50: read-out: IC50_cytotox on OATP1B1 expressing cell line + SE"}, "[2]": {"molecular_target": "type 1 protein phosphatase", "conditions": "cited from earlier work"}, "[3]": {"tested_on": "type 2A protein phosphatases", "conditions": "cited from earlier work"}},
  "data": [
    {"compound": "C=C1C(=O)N[C@H](C)C(=O)N[C@@H](CCCN=[N+]=[N-])C(=O)N[C@@H](C(=O)O)CC(=O)N[C@@H](CCCNC(=N)N)C(=O)N[C@@H](/C=C/C(C)=C/[C@H](C)[C@H](Cc2ccccc2)OC)[C@H](C)C(=O)N[C@@H](C(=O)O)CCC(=O)N1C", "note": "[MC-(Aznva)R, cyclo(D-Ala-Aznva-D-Asp-R-Adda-D-Glu-Mdha)]", "values": [
      {"measurement": "Ratio of IC50_cytotox OATP1B3/ IC50_PPI", "setting": "HEK293 OATP1B3+", "result": 0.58},
      {"measurement": "IC50", "setting": "HEK293 OATP1B3+", "result": "27 ± 1.5", "unit": "nM"},
      {"measurement": "IC50", "setting": "[1]", "result": "46.7 ± 9.2", "unit": "nM"},
      {"measurement": "Ratio of IC50_Cytotox OATP1B1/ IC50_PPI", "setting": "HEK293 OATP1B1+", "result": 0.52},
      {"measurement": "IC50", "setting": "HEK293 OATP1B1+", "result": "24.1 ± 11.5", "unit": "nM"}
    ]},
    {"compound": "C#CCOc1ccc(C[C@@H]2NC(=O)[C@@H](C)NC(=O)C(=C)N(C)C(=O)CC[C@H](C(=O)O)NC(=O)[C@@H](C)[C@H](/C=C/C(C)=C/[C@H](C)[C@H](Cc3ccccc3)OC)NC(=O)[C@H](CCCNC(=N)N)NC(=O)C[C@H](C(=O)O)NC2=O)cc1", "note": "[MC-(Prtyr)R, cyclo(D-Ala-Prtyr-D-Asp-R-Adda-D-Glu-Mdha)]", "values": [
      {"measurement": "Ratio of IC50_cytotox OATP1B3/ IC50_PPI", "setting": "HEK293 OATP1B3+", "result": 4.81},
      {"measurement": "IC50", "setting": "HEK293 OATP1B3+", "result": "40.4 ± 36.6", "unit": "nM"},
      {"measurement": "IC50", "setting": "[1]", "result": "8.4 ± 5.4", "unit": "nM"},
      {"measurement": "Ratio of IC50_Cytotox OATP1B1/ IC50_PPI", "setting": "HEK293 OATP1B1+", "result": 9.79},
      {"measurement": "IC50", "setting": "HEK293 OATP1B1+", "result": "82.2 ± 4.5", "unit": "nM"}
    ]},
    {"compound": "microcystin-LR", "values": [
      {"measurement": "IC50", "setting": "[2]", "result": 0.03, "unit": "nM"},
      {"measurement": "IC50", "setting": "[3]", "result": 0.04, "unit": "nM"}
    ]}
  ]
}
